Measured values as given in patent US12371421B2, “Solid forms of a PARP7 inhibitor” (Ribon Therapeutics, Inc., priority 2019, dated 2025).

Legend:
Assay in all cases: Cancer cell growth inhibition (CellTiter-Glo)
Type in all cases: cell-based
MDA-MB-468 = settings: Homo sapiens; MDA-MB-468, breast adenocarcinoma; 144 hours
Experimental: (§1) Cells were plated into 384-well plates at a pre-specified density in fetal bovine serum-containing media. Cells were treated with compound or vehicle (DMSO) 24 hrs later, and a day zero plate was collected for analysis. Test compound plates were incubated continuously for 144 hours before cells and cell growth was assessed using a luminescent cell viability assay (CellTiter-Glo, Promega). The GI50 was determined by correcting for the cell count at time zero (time of treatment) and plotting data as percent growth relative to vehicle-treated cells.

CAL-27 = settings: Homo sapiens; CAL-27, tongue squamous cell carcinoma; 144 hours
Experimental: as §1

CFPAC-1 = settings: Homo sapiens; CFPAC-1, pancreatic ductal adenocarcinoma; 144 hours
Experimental: as §1

NCI-H1437 = settings: Homo sapiens; NCI-H1437, lung adenocarcinoma; 144 hours
Experimental: as §1

ACC-MESO-1 = settings: ACC-MESO-1, mesothelioma; 144 hours
Experimental: as §1

KALS-1 = settings: Homo sapiens; KALS-1, glioblastoma; 144 hours
Experimental: as §1

SCaBER = settings: Homo sapiens, bladder squamous cell carcinoma, 144 hours
Experimental: as §1

NCI-H1648 = settings: Homo sapiens; NCI-H1648, lung adenocarcinoma; 144 hours
Experimental: as §1

SK-MES-1 = settings: Homo sapiens; SK-MES-1, squamous cell lung carcinoma; 144 hours
Experimental: as §1

NCI-H1963 = settings: Homo sapiens; NCI-H1963, small cell lung carcinoma; 144 hours
Experimental: as §1

NCI-H2444 = settings: Homo sapiens; NCI-H2444, non-small cell lung carcinoma; 144 hours
Experimental: as §1

NCI-H1373 = settings: Homo sapiens; NCI-H1373, lung adenocarcinoma; 144 hours
Experimental: as §1

Panc 03.27 = settings: Homo sapiens, PANC-03-27; Panc 03.27, pancreatic adenocarcinoma; 144 hours
Experimental: as §1

T84 = settings: Homo sapiens; T84, colon adenocarcinoma; 144 hours
Experimental: as §1

MSTO-211H = settings: Homo sapiens, biphasic mesothelioma, 144 hours
Experimental: as §1

EBC-1 = settings: Homo sapiens; EBC-1, squamous cell lung carcinoma; 144 hours
Experimental: as §1

SF126 = settings: Homo sapiens, SF-126; SF126, glioblastoma multiforme; 144 hours
Experimental: as §1

IA-LM = settings: large cell lung carcinoma, 144 hours
Experimental: as §1

NCI-H441 = settings: Homo sapiens; NCI-H441, papillary adenocarcinoma of the lung; 144 hours
Experimental: as §1

COLO 680N = settings: Homo sapiens, esophageal squamous cell carcinoma, 144 hours
Experimental: as §1

LN-18 = settings: Homo sapiens; LN-18, glioblastoma; 144 hours
Experimental: as §1

NCI-H647 = settings: Homo sapiens; NCI-H647, lung adenosquamous carcinoma; 144 hours
Experimental: as §1

HCC827 = settings: Homo sapiens; HCC827, lung adenocarcinoma; 144 hours
Experimental: as §1

SK-MEL-2 = settings: Homo sapiens; SK-MEL-2, malignant melanoma; 144 hours
Experimental: as §1

SCC-25 = settings: Homo sapiens; SCC-25, tongue squamous cell carcinoma; 144 hours
Experimental: as §1

NCI-H2087 = settings: Homo sapiens; NCI-H2087, lung adenocarcinoma; 144 hours
Experimental: as §1

HPAF-II = settings: Homo sapiens, pancreatic adenocarcinoma, 144 hours
Experimental: as §1

SNU-840 = settings: SNU-840, malignant ovarian Brenner tumor; 144 hours
Experimental: as §1

NCI-H2066 = settings: NCI-H2066, squamous cell lung carcinoma; 144 hours
Experimental: as §1

MCAS = settings: ovarian mucinous cystadenocarcinoma, 144 hours
Experimental: as §1

HT-1080 = settings: Homo sapiens; HT-1080, fibrosarcoma; 144 hours
Experimental: as §1

TE-11 = settings: Homo sapiens; TE-11, esophageal squamous cell carcinoma; 144 hours
Experimental: as §1

A101D = settings: Homo sapiens, melanoma, 144 hours
Experimental: as §1

NCI-H2347 = settings: Homo sapiens; NCI-H2347, lung adenocarcinoma; 144 hours
Experimental: as §1

KMBC-2 = settings: KMBC-2, bladder carcinoma; 144 hours
Experimental: as §1

TUHR10TKB = settings: renal cell carcinoma, 144 hours
Experimental: as §1

Caki-1 = settings: Homo sapiens; Caki-1, clear cell renal cell carcinoma; 144 hours
Experimental: as §1

C[C@@H](COCCC(=O)N1CCN(c2ncc(C(F)(F)F)cn2)CC1)Nc1cn[nH]c(=O)c1C(F)(F)F [Compound 1, 5-[[(2S)-1-(3-oxo-3-[4-[5-(trifluoromethyl)pyrimidin-2-yl]piperazin-1-yl]propoxy)propan-2-yl]amino]-4-(trifluoromethyl)-2,3-dihydropyridazin-3-one]
GI50 (MDA-MB-468): ≥ 1000 nM
GI50 (CAL-27): ≥ 1000 nM
GI50 (CFPAC-1): 100 to 1000 nM
GI50 (NCI-H1437): ≥ 1000 nM
GI50 (ACC-MESO-1): ≥ 1000 nM
GI50 (KALS-1): ≥ 1000 nM
GI50 (SCaBER): ≥ 1000 nM
GI50 (NCI-H1648): ≥ 1000 nM
GI50 (SK-MES-1): ≥ 1000 nM
GI50 (NCI-H1963): ≥ 1000 nM
GI50 (NCI-H2444): ≥ 1000 nM
GI50 (NCI-H1373): < 100 nM
GI50 (Panc 03.27): < 100 nM
GI50 (T84): ≥ 1000 nM
GI50 (MSTO-211H): ≥ 1000 nM
GI50 (EBC-1): < 100 nM
GI50 (SF126): ≥ 1000 nM
GI50 (IA-LM): < 100 nM
GI50 (NCI-H441): ≥ 1000 nM
GI50 (COLO 680N): ≥ 1000 nM
GI50 (LN-18): ≥ 1000 nM
GI50 (NCI-H647): < 100 nM
GI50 (HCC827): < 100 nM
GI50 (SK-MEL-2): ≥ 1000 nM
GI50 (SCC-25): < 100 nM
GI50 (NCI-H2087): ≥ 1000 nM
GI50 (HPAF-II): ≥ 1000 nM
GI50 (SNU-840): ≥ 1000 nM
GI50 (NCI-H2066): ≥ 1000 nM
GI50 (MCAS): ≥ 1000 nM
GI50 (HT-1080): ≥ 1000 nM
GI50 (TE-11): ≥ 1000 nM
GI50 (A101D): ≥ 1000 nM
GI50 (NCI-H2347): < 100 nM
GI50 (KMBC-2): ≥ 1000 nM
GI50 (TUHR10TKB): < 100 nM
GI50 (Caki-1): < 100 nM
